Data from patent publication US10906946B2, “Thrombin inhibitors” (priority 2015, dated 2021).
Where two headings read alike, the source gives them in different places. Peptide text beside a SMILES is read from it.

Key:
thrombin = target: T1, thrombin (Homo sapiens, UniProt P00734); assay: Inhibition of thrombin fibrinogenolytic activity (fibrinogen clotting time); format: biochemical
T1 construct: residues in the termini of the light chain; and in the autolysis loop and C-terminus of the heavy chain; purchased Chemo-Sero-Therapeutic Research Institute (Kaketsuken, Japan), as a gift, not bought
Procedure: Thrombin amidolytic activity assays for all peptides were performed in 96-wells microtiter plates in 50 mM Tris buffer (pH 7.4) containing 100 mM NaCl and 1 mg/ml bovine serum albumin. Typically, 100 μl of peptide and 100 μl of thrombin were pre-incubated for different durations before 100 μl of S2238 was added to the reaction wells. The rates of formation of p-nitroaniline were followed by measuring the absorbance at 405 nm for 10 min with a Tecan InfinitePro M200 microplate reader from Tecan (Männedorf, Switzerland). Dose-response curves were fitted using the GraphPad Prizm software (San Diego, Calif., USA) to calculate IC50 values and Hill coefficients. To measure the inhibitory constants, different concentrations of S2238 were used and the residual velocities were determined using the Morrison's tight binding equation. Inhibition of thrombin fibrinogenolytic activity of peptides were tested by measuring absorbance at 650 nm using a Sunrise microplate reader from Tecan (Männedorf, Switzerland) as described previously [Koh C Y, et al., J Biol Chem 282: 29101-13 (2007)]. The selectivity of avathrin was examined against 13 serine proteases (FIG. 5). Effects of avathrin on the amidolytic activities of these serine proteases were determined using respective chromogenic substrates. Cleavage of avathrin by thrombin. Avathrin (150 μM) was incubated with thrombin (5 μM), in 50 mM Tris buffer (pH 7.4) containing 150 mM NaCl and 1 mg/ml BSA. After different incubation times, reactions were quenched with 1% TFA (pH 1.8) and loaded onto a Jupiter Proteo column (4 μm, 90 Å, 100×1.0 mm) attached to a Dionex nano-HPLC system from Thermo Fisher Scientific (Waltham, Mass., USA) and eluted using an acetonitrile gradient with 0.05% TFA and 99.95% MilliQ water as eluent A and 0.05% TFA, 19.95% MilliQ water and 80% ACN as eluent B. Masses of all peaks were measured to identify cleavage products, which were subsequently quantified by integrating the peaks and calculating the area under the curves. To measure the effect of different pre-incubation times on the thrombin inhibitory activity, amidolytic assays were performed for various incubation times (up to 36 h).

[1] = test system: platelets (ADP-induced platelet aggregation); assay: Preservation of platelet function in blood tubes (Multiplate, ADP-induced platelet aggregation); format: cell-based, human (healthy volunteers); conditions: ADP agonist
Procedure: Individual peptides are dissolved in phosphate buffered saline to prepare 10× peptide solutions (ie. concentrations of peptides are 10 times higher than the final concentrations at which they are to be tested). 0.3 ml of the 10× peptide solutions are placed in blood tubes without any additives. Blood was drawn from healthy volunteers using syringes and immediately transferred to a 50 ml conical centrifuge tube (Falcon tube) before pipetting 2.7 ml of the blood into blood tubes with peptide solutions. Final concentrations of peptides are as stated in Table 5 and 6.
Blood tubes with various peptides at different concentrations were left standing at room temperature until tested at designated times. At different time points, tubes were inverted several times and blood samples were taken out for platelet aggregation tests using a Multiplate® Platelet aggregometer with adenosine diphosphate (ADP) as agonist according to manufacturer's recommended protocols.

[2] = test system: other serine proteases (trypsin, fIXa, fXIa, fXa, chymotrypsin, tPA, fVIIa, plasmin, APC, kallikrein, urokinase, fXIIa); assay: Serine protease selectivity screen (amidolytic assays with chromogenic substrates); format: biochemical
Procedure: Avathrin was screened for its selectivity against 13 serine proteases including procoagulant, anticoagulant, fibrinolytic and classical serine proteases (thrombin, trypsin, fIXa, fXIa, fXa, chymotrypsin, tPA, fVIIa, plasmin, APC, kallikrien, urokinase and fXIIa). […]
Thrombin amidolytic activity assays for all peptides were performed in 96-wells microtiter plates in 50 mM Tris buffer (pH 7.4) containing 100 mM NaCl and 1 mg/ml bovine serum albumin. […] The rates of formation of p-nitroaniline were followed by measuring the absorbance at 405 nm for 10 min with a Tecan InfinitePro M200 microplate reader from Tecan (Männedorf, Switzerland). […] To measure the inhibitory constants, different concentrations of S2238 were used and the residual velocities were determined using the Morrison's tight binding equation. Inhibition of thrombin fibrinogenolytic activity of peptides were tested by measuring absorbance at 650 nm using a Sunrise microplate reader from Tecan (Männedorf, Switzerland) as described previously [Koh C Y, et al., J Biol Chem 282: 29101-13 (2007)]. […] Effects of avathrin on the amidolytic activities of these serine proteases were determined using respective chromogenic substrates. […]

[3] = test system: FeCl3-induced carotid artery thrombosis; assay: Ferric chloride-induced carotid artery thrombosis model; format: in vivo, C57BL/6 male mice; conditions: mice, 10% FeCl3
Procedure: All animal experiments were carried out under protocol 041/12 approved by Institutional Animal Care and Use Committee, National University of Singapore. The ferric chloride induced carotid artery thrombosis model was performed as described previously [Eckly A, et al., J Thromb Haemost 9: 779-89 (2011)] with minor modifications. Typically, C57BL/6 male mice (9-11 weeks old, 24.5-27.5 g) were anesthetized with an intraperitoneal injection of ketamine (75 mg/kg) and medetomidine (1 mg/kg). 100 μL of different doses of avathrin were injected into the mice via tail vein. The right carotid artery was dissected using blunt dissection and a vascular injury was caused applying filter paper of 2 mm×2 mm saturated with FeCl3 on top of the carotid artery. After 3 min, the filter paper was removed and the vessel was washed with sterile normal saline. To determine the time to occlusion, a miniature Doppler flow probe (Transonic Systems Inc., Ithaca, N.Y., USA) was placed around the carotid artery and blood flow was recorded using a Transonic® flow meter from ADInstruments (Dunedin, New Zealand). The maximal time for monitoring the blood flow after injury was 30 min. Mice were euthanized by cervical dislocation immediately after the completion of the experiment and prior to recovery from anesthesia.

clot-bound thrombin = clot-bound thrombin (Homo sapiens, UniProt P00734); assay: biochemical
Procedure: Clot-bound thrombin activity was tested using S2238. Briefly, fibrin clots were prepared by incubating 100 μL of 2 mg/mL fibrinogen (in 50 mM HEPES buffer, pH 7.5, 150 mM NaCl, 10 mg/mL CaCl2) with 100 μL 30 nM thrombin. After 2 h at 37° C., the clots were extensively washed with the same buffer. This washing was repeated after every three hours for a period of 24 hr. […] Chromogenic substrate, S2238 (final concentration 200 μM) was then added and the reaction mixture was incubated for 90 min at 37° C. Aliquots were taken, and substrate hydrolysis was estimated by end point reading at 405 nm, using a Tecan InfinitePro microplate reader. Experiments were performed in quadruplicate and percentage inhibition was plotted.

Row | Compound | effect on fibrinogen clotting time / thrombin fibrinogenolytic activity (thrombin) | Multiplate AUC (U) ([1]; 1.5 h, peptide 150 μM) | Multiplate AUC (U) ([1]; 1.5 h, peptide 300 μM) | Multiplate AUC (U) ([1]; 4 h, peptide 150 μM) | Multiplate AUC (U) ([1]; 4 h, peptide 300 μM) | Multiplate AUC (U) ([1]; 24 h, peptide 150 μM) | Multiplate AUC (U) ([1]; 24 h, peptide 300 μM) | Multiplate AUC (U) ([1]; 48 h, peptide 150 μM) | Multiplate AUC (U) ([1]; 48 h, peptide 300 μM) | Multiplate AUC (U) ([1]; 72 h, peptide 150 μM) | Multiplate AUC (U) ([1]; 72 h, peptide 300 μM) | effect on fibrinogen clotting time / thrombin fibrinogenolytic activity (thrombin; listed as avathrin) | inhibition of other proteases ([2]; 100 μM avathrin) [%] | selectivity preference for thrombin ([2]; thrombin versus other serine proteases) | time to occlusion (TTO) ([3]; 3 mg/kg intravenously) [min] | time to occlusion (TTO) ([3]; 10 mg/kg intravenously) [min] | IC50 (clot-bound thrombin) [µM]
1 | CC[C@H](C)[C@H](NC(=O)[C@H](C)NC(=O)[C@H](CC(=O)O)NC(=O)[C@H](CC(=O)O)NC(=O)[C@@H]1CCCN1C(=O)[C@@H](NC(=O)[C@H](CCC(=O)O)NC(=O)[C@H](CCC(=O)O)NC(=O)[C@H](Cc1ccccc1)NC(=O)[C@H](CC(=O)O)NC(=O)CNC(=O)[C@@H]1CCCN1C(=O)[C@@H]1CCCN1C(=O)[C@H](C)NC(=O)[C@@H](NC(=O)[C@H](CO)NC(=O)[C@H](Cc1ccc(O)cc1)NC(=O)[C@H](CCSC)NC(=O)[C@H](CCCCN)NC(=O)[C@@H]1CCCN1C(=O)[C@@H](NC(=O)[C@H](C)NC(=O)[C@H](CCCNC(=N)N)NC(=O)[C@@H](NC(=O)[C@H](C)NC(=O)[C@H](CCC(=O)O)NC(=O)[C@H](CC(=O)O)NC(=O)[C@@H](N)CO)C(C)C)[C@@H](C)CC)[C@@H](C)O)[C@@H](C)CC)C(=O)N[C@@H](CCC(=O)O)C(=O)N[C@@H](CCC(=O)O)C(=O)O [Ultravariegin] (H-SDEAVRAIPKMYSTAPPGDFEEIPDDAIEE-OH; N-terminus and C-terminus assumed) | prolonged fibrinogen clotting times in a dose dependent manner | 55.7 | 66.3 | 52 | 46.1 | 43.1 | 39.5 | 7.4 | 25.4 | 9.6 | 15.4 |  |  |  |  |  | 
2 | CC[C@H](C)[C@H](NC(=O)[C@H](CCCCN)NC(=O)[C@@H]1CCCN1C(=O)[C@@H](NC(=O)[C@H](C)NC(=O)[C@@H](NC(=O)[C@H](CCC(N)=O)NC(=O)[C@H](Cc1c[nH]cn1)NC(=O)CNC(=O)CNC(=O)[C@@H](N)CO)[C@@H](C)O)C(C)C)C(=O)N[C@@H](CO)C(=O)N[C@@H](CCCCN)C(=O)N[C@@H](CCC(N)=O)C(=O)NCC(=O)N[C@@H](CC(C)C)C(=O)NCC(=O)NCC(=O)N[C@@H](CC(=O)O)C(=O)N[C@@H](Cc1ccccc1)C(=O)N[C@@H](CCC(=O)O)C(=O)N[C@@H](CCC(=O)O)C(=O)N[C@H](C(=O)N1CCC[C@H]1C(=O)N[C@@H](CO)C(=O)N[C@@H](CC(=O)O)C(=O)N[C@@H](CCC(=O)O)C(=O)N[C@H](C(=O)N[C@H](C(=O)N[C@@H](CCC(=O)O)C(=O)O)[C@@H](C)CC)[C@@H](C)CC)[C@@H](C)CC [Avathrin] (H-SGGHQTAVPKISKQGLGGDFEEIPSDEIIE-OH; N-terminus and C-terminus assumed) | prolonged fibrinogen clotting time in a dose-dependent manner | 60.9 | 62.4 | 53.6 | 46.8 | 55.8 | 43.3 |  | 3.5 |  |  | prolonged fibrinogen clotting times in a dose dependent manner | < 30 | at least four orders of magnitude | 15.03 ± 3.23 | 22.51 ± 4.19 | 1.74 ± 0.35
